Tests used:
corneal wound = test: Corneal wound healing in mice, fluorescein staining; assay type: in vivo, C57BL/6 mice; conditions: for corneal re-epithelialization after 48 hours: 20 μl eye ointment with 50 μM peptide once a day, 2 mm wound; for residual epithelial defect, percentage of the original wound: 50 μM peptide eye ointment once a day
Procedure: (§1) The experiments were performed using eight-week-old female C57BL/6 mice, and the procedures were approved by the Mackay Memorial Hospital Review Board for animal investigation. Animals were anesthetized by an intraperitoneal injection of a mixture of zoletil (6 mg/kg) and xylazine (3 mg/kg). One filter paper (0.9 mm diameter) soaked with 20% ethanol was placed on the central cornea of right eye for one minute and then irrigated extensively with PBS. Subsequently, mechanical epithelial scrape was performed using a punch under a dissection microscope to create a circular injury (2 mm diameter) at the entire corneal region of the mouse eye without encroaching the corneal stroma, limbus or conjunctiva.
(§2) Each synthetic peptide (the 39-mer, 34-mer, 29-mer, 25-mer, 20-mer, 18-mer, Mo 29-mer or Mo 20-mer) was reconstituted in DMSO as stock (5 mM) and mixed with TOBREX® eye ointment (Alcon; containing 0.3% Tobramycin and 0.5% Chlorobutanol) to a concentration 50 μM. In each of the treatment group (n=6-10), the right eye was treated with 20 μl eye ointment containing the synthetic peptide once a day after the scrape injury. In the control group (n=20), right eye was treated with 20 μl of eye ointment mixed with vehicle DMSO. Wound size was determined by staining with topical fluorescein (Fluor-I-Strip, Ayerst Laboratories, Philadelphia, Pa.) and photographed with a digital camera. The area of defect was quantified from the photographs using a computer-assisted image analyzer (Adobe Photoshop CS3 10.0) and was calculated as the percentage of residual epithelial defect at each time point/initial wound area.
To investigate the effect of PEDF-derived short peptides on corneal wound healing in mice, corneal wound was created by a circular punch (2 mm diameter), then control eye-ointment or eye-ointment containing the short synthetic PEDF peptide(s) of this invention was applied to the wounded eye, and wound healing was subsequently evaluated by fluorescein staining. No significant differences in the size of the initial abrasion were noted between synthetic PEDF peptide-treated and control mice.

LSCs in the limbus [1] = test: In vivo LSC proliferation in limbus 24 hours after corneal wounding, BrdU/ΔNp63α double-immunostaining; parameters: species or system C57BL/6 mice; conditions: peptide eye ointment, control 15.0±7.6%
Procedure: (§3) De-paraffinized tissue sections or 4% paraformaldehyde-fixed LSCs were blocked with 10% goat serum and 5% BSA in PBST (PBS containing 0.1% Tween-20) for 1 hour. Staining was done using primary antibodies against ΔNp63α (1:150 dilution), BrdU (1:250 dilution), and keratin-3 (1:250 dilution) at 37° C. for 2 hours, followed by incubation with the appropriate rhodamine- or FITC-conjugated donkey IgG (1:500 dilution) for 1 hour at RT. Nuclei were identified by counterstaining with Hoechst 33258 for 7 minutes. Images were captured using a Zeiss epifluorescence microscope with a CCD camera and photographs were taken by using the Axiovert software.
2×10^5 limbal cells (the 1st passage) were seeded at a slide coated with FNC COATING MIX® solution (Athena Enzyme Systems, Baltimore, Md.) and incubated with a culture medium for one day. BrdU (final, 10 μM) was added to the culture for 2 hours. […] DNA synthesis was assessed by BrdU labeling with anti-BrdU antibodies. […]
Each synthetic peptide (the 39-mer, 34-mer, 29-mer, 25-mer, 20-mer, 18-mer, Mo 29-mer or Mo 20-mer) was reconstituted in DMSO as stock (5 mM) and mixed with TOBREX® eye ointment (Alcon; containing 0.3% Tobramycin and 0.5% Chlorobutanol) to a concentration 50 μM. […] Wound size was determined by staining with topical fluorescein (Fluor-I-Strip, Ayerst Laboratories, Philadelphia, Pa.) and photographed with a digital camera. […]

LSCs in the limbus [2] = test: Limbal epithelium thickness and ΔNp63α-positive LSC level on day 5 post corneal wounding; assay type: in vivo, C57BL/6 mice; conditions: day 5 post-wounding; for thickness of the limbus / limbal epithelia: compared with normal unwounded eye; for levels of ΔNp63α-positive LSCs in limbus: control ointment 38.9±2.8%, normal unwounded eye 74.8±6.3%
Excerpt: FIG. 4A provides histologic photographs (left panels, Hematoxylin and Eosin (H&E) staining, magnification, ×400), immunofluorescence microscopy photographs (middle panels, magnification, ×1000), and merged photographs (right panels); together, they illustrate layers of stratified limbal epithelium of mice at day 5 post-corneal injury according to the previous example of the present disclosure. […] Normal indicates uninjured eye. Cornea of normal eye that has no ΔNp63α-positive cell acted as ΔNp63α negative immunostaining control. FIG. 4B is a histogram illustrating levels of ΔNp63α-positive cells at limbus. Results of immunofluorescence were evaluated from 6 sections per mouse cornea, and 6 mice at each treatment. A labeling index was computed as the number of labeled cells divided by the total number of cells observed by a Hoechst 33258 fluorescent nuclear stain. P<0.005 versus control eye.
as §3, §1, §2
On average, the levels of ΔNp63α-positive LSCs in limbus of normal unwounded eye is 74.8±6.3%; whereas the levels of ΔNp63α-positive LSCs in corneal wounded eyes treated with control, 29-mer, 20-mer, 18-mer and Mo 20-mer ointment were 38.9±2.8%, 77.0±4.1%, 73.1±8.6%, 39.4±2.6%, and 76.3±6.2% respectively (FIG. 4B). Taken together, 29-mer or 20-mer treatment can activate LSCs in vivo coincidently with more prominent corneal re-epithelialization than corneal regeneration by native progress.

[3] = system: full-thickness skin excisional wounds; test: Skin wound healing in mice, wound area from photographs; assay type: in vivo, C57L/B6 mice; conditions: for residual epithelial defects, percentage of the original wound: 25 μl skin ointment with 50 μM peptide once daily
Procedure: FIG. 6A provides photographs and FIG. 6B is a histogram, and together, they illustrate the skin (epithelial) wound-healing of mice from treatment groups according to another example of the present disclosure. 4 mm punch wounds were made on the dorsal side of C57/B6 mice. Skin ointment was treated once a day. Photographs of the wounded skin and ruler (scale 10 mm) were captured with a CCD camera (Olympus). The residual epithelial defect (%) is presented as percentage of the original wound. Data are shown as mean±SE.
To perform full-thickness skin excision, 8- to 10-week-old C57L/B6 mice were respectively anesthetized by an intraperitoneal injection of a mixture of zoletil (6 mg/kg) and xylazine (3 mg/kg). Two full-thickness skin excisional wounds, 4 mm in diameter were made on either side of the dorsal midline using Sklar Tru-Punch disposable biopsy punch (Sklar, West Chester, Pa., USA). In each treatment group (n=6), the skin wound was treated with 25 μl skin ointment (containing 50 μM synthetic peptide and 0.006 μl DMSO vehicle) once daily after the skin scraping. In the control group (n=6), skin wound was treated with 25 μl of skin ointment with equal concentration of DMSO. Each gram of the above skin ointment contains 5 mg neomycin sulfate and 12.5 mg Bacitracin Zinc. Wounds were left uncovered and harvested 4 and 7 days after injury. Mice were housed individually during the healing period.
The area of wound was quantified from the photographs using a computer-assisted image analyzer (Adobe Photoshop CS3 10.0) and was calculated as the percentage of residual epithelial defect at each time point/initial wound area.

[4] = day 4 post-injury, control 61.5±3.2%
[5] = day 7 post-injury, control 44.5±5.3%

Sequence	corneal re-epithelialization after 48 hours (corneal wound)	residual epithelial defect, percentage of the original wound (corneal wound; 24 hours, control 84.9±5.1%)	residual epithelial defect, percentage of the original wound (corneal wound; 48 hours, control 39.5±3.1%)	levels of BrdU- and ΔNp63α-positive cells in the limbus (LSCs in the limbus [1])	thickness of the limbus / limbal epithelia (LSCs in the limbus [2])	levels of ΔNp63α-positive LSCs in limbus (LSCs in the limbus [2])	residual epithelial defects, percentage of the original wound [3, 4]	residual epithelial defects, percentage of the original wound [3, 5]	promotion of skin wound healing ([3]; days 4 and 7, 50 μM peptide skin ointment once daily)
SLGAEQRTESIIHRALYYDL [20-mer, synthetic peptide identical to residues 11-30 of the 39-mer]	complete corneal re-epithelialization	42.2±4.3%	5.0±3.7%	42.4±4.3%	returned to full-thickness of stratified layers	73.1±8.6%	50.1±3.8%	20.0±4.9%	
SLGAEQRTESIIHRALYYDLISSPDIHGT [29-mer, short synthetic PEDF peptide derived from the 39-mer]	complete corneal re-epithelialization	36.5±6.4%	3.7±2.9%	43.2±4.6%	returned to full-thickness of stratified layers	77.0±4.1%	46.3±3.7%	18.2±4.3%	
SLGAEHRTESVIHRALYYDL [Mo 20-mer, synthetic peptide derived from mouse PEDF]	complete corneal re-epithelialization	43.9±7.6%	6.2±3.5%		returned to full-thickness of stratified layers	76.3±6.2%	49.6±3.9%	20.3±7.5%	
EQRTESIIHRALYYDLIS [18-mer]	incompletely healed wounds				thinner	39.4±2.6%			not able to promote wound healing
SLGAEHRTESVIHRALYYDLITNPDIHST [Mo 29-mer, synthetic peptide derived from mouse PEDF]	complete corneal re-epithelialization	33.8±5.2%	4.6±2.3%				47.8±4.3%	16.8±6.6%	

Source: patent US9617311B2, “Use of PEDF-derived polypeptides for promoting stem cells proliferation and wound healing” (Mackay Memorial Hospital, priority 2011, dated 2017)
